{"source": "patent US20180133221A1", "about": "“ADMINISTRATION OF UBIQUITIN-ACTIVATING ENZYME INHIBITOR AND CHEMOTHERAPEUTIC AGENTS” (Millennium Pharmaceuticals, Inc., priority 2014, published 2018)", "key": {"[1]": {"test_system": "PHTX-132Lu non-small cell lung xenograft", "details": "for Tumor Volume Day 21: in mm³ (unit assumed)", "description": "The PHTX-132Lu non-small cell lung xenograft model was established from a patient-derived tumor collected during surgery from a person with lung cancer (Poorly Differentiated Adenocarcinoma). PHTX-132Lu tumor fragments (approximately 2×2×3 mm^3) are implanted into the subcutaneous space in the right dorsal flank of female CB-17 SCID mice (age 10 weeks, Charles River Laboratory, Wilmington, Mass.) using a 13-gauge trocar. When the mean tumor volume reached approximately 220 mm^3, the animals were randomized into 12 treatment groups (n=5/group).\nCarboplatin (Teva Pharmaceuticals) is formulated in 0.9% saline and administered by IP injection once weekly (QW) at 25, 50, 60, and 75 mg/kg. The once weekly schedule is also described as every 7 days (Q7D).\nCompound 1 [((1R,2R,3S,4R)-2,3-dihydroxy-4-(2-(3-(trifluoromethylthio)-phenyl)pyrazolo[1,5-a]pyrimidin-7-ylamino)cyclopentyl)methyl sulfamate] is formulated in 10-20% HPbCD in sterile water and administered intravenously (IV) or subcutaneously (SC) on a BIW (twice/week schedule; Monday and Thursday or Tuesday and Friday) for either 2-4 weeks.\nTumors were measured twice weekly using vernier calipers. Tumor volumes were calculated using the standard formula V=W^2×L/2,). When mean tumor volumes reached approximately 200 mm^3 for PHTX-24C, 220 mm^3 for PHTX-Lu132, 150 mm^3 for CTG-0256, 260 mm^3 for CTG-0486, 185 mm^3 for PHTX-17C, 260 mm^3 for CTG-0165, 150 mm^3 for PHTX-14B in the study of Compound 1 and paclitaxel, 180 mm^3 for PHTX-14B in the study of Compound 1 and docetaxel, 200 mm^3 for SKOV-3, 220 mm^3 for PHTX-02B in the study of Compound 1 and docetaxel, 250 mm^3 for PHTX-02B in the study of Compound 1 and paclitaxel, 195 mm^3 for CTG-0159, 180 mm^3 for CTG-0012 or 150 mm^3 for Calu-6, mice were randomized into groups of n=5-7/arm as described in the tables below, and injected with vehicle, Compound 1 or agents (docetaxel, paclitaxel, oxaliplatin, cisplatin or carboplatin), or the combination of Compound 1 plus one of the agents, at various doses and schedules as described in tables below. Tumor size and body weight were measured approximately twice a week for the duration of the study. Mice are euthanized when their tumor volume reached 10% of their body weight, or when the average tumor volume of a treatment or control group reached approximately 2000 mm^3. Tumor growth continued to be monitored after the dosing period in some studies. Average tumor volume is reported as a function of time for selected arms of selected studies in the Figures.\nMeasurements from day 0 to day 14, day 19, day 21, or day 28 are analyzed as specified in Tables below. All tumor volumes have a value of 1 added to them before log10 transformation. For each animal, the log tumor volume at day 0 is subtracted from the log tumor volume on the subsequent days. This difference vs. time is used to calculate an area under the curve (AUC) for each animal using the trapezoid rule. […] The synergy score for the combination of agents A and B is defined as\n100*(mean(AUCAB)−mean(AUCA)−mean(AUCB)+mean(AUCctl))/mean(AUCctl):\nwhere AUCAB, AUCA, AUCB, and AUCctl are the AUC values for animals in the combination group, the A group, the B group, and the control group, respectively. The standard error of the synergy score is computed based on the variation in the AUC values among the animals. […] If the P-value is above 0.05, then the combination is considered to be additive. If the P-value is below 0.05, and the synergy score is less than zero, then the combination is considered to be synergistic."}, "[2]": {"test_system": "PHTX-02B breast xenograft", "test": "PHTX-02B xenograft model, Compound 1 and docetaxel", "type": "in vivo, SCID-NOD mice", "details": "for Tumor Volume Day 21: in mm³ (unit assumed)", "protocol": "Docetaxel (Henry Schein, Inc., Pittsburgh Pa.) is formulated in 0.9% saline and administered by intravenous injection (IV) once weekly (QW) at 5 mg/kg or 10 mg/kg. […] Tumors were measured twice weekly using vernier calipers."}}, "note": "Like-named read-outs stand apart in the source and are kept apart here.", "data": [{"compound": "NS(=O)(=O)OC[C@H]1C[C@@H](Nc2ccnc3cc(-c4cccc(SC(F)(F)F)c4)nn23)[C@H](O)[C@@H]1O", "note": "[Compound 1, ((1R,2R,3S,4R)-2,3-dihydroxy-4-(2-(3-(trifluoromethylthio)phenyl)pyrazolo[1,5-a]pyrimidin-7-ylamino)cyclopentyl)methyl sulfamate]", "values": [{"measurement": "Tumor Volume Day 21", "setting": "[1]; 5 mg/kg Compound 1 BIWx3 IV", "result": 882.7}, {"measurement": "Tumor Volume Day 21", "setting": "[1]; 10 mg/kg Compound 1 BIWx3 IV", "result": 653.5}, {"measurement": "Tumor Volume Day 21", "setting": "[1]; 15 mg/kg Compound 1 BIWx3 IV", "result": 483.7}, {"measurement": "anti-tumor activity compared to vehicle control", "setting": "[1]; single agent Compound 1 IV at 5, 10 and 15 mg/kg BIW", "result": "modest anti-tumor activity"}, {"measurement": "Tumor Volume Day 21", "setting": "[2]; 7.5 mg/kg Compound 1 BIWx3 SC", "result": 596.5}, {"measurement": "Tumor Volume Day 21", "setting": "[2]; 15 mg/kg Compound 1 BIWx3 SC", "result": 324.8}, {"measurement": "Tumor Volume Day 21", "setting": "[2]; 20 mg/kg Compound 1 BIWx3 IV", "result": 178.8}, {"measurement": "Tumor Volume Day 21", "setting": "[2]; 20 mg/kg Compound 1 BIWx3 SC", "result": 185}, {"measurement": "tumor growth compared to the vehicle control group", "setting": "[2]; single agent Compound 1 SC at 7.5, 15 and 20 mg/kg BIW, IV also 20 mg/kg BIW", "result": "inhibited tumor growth"}]}]}
